{
  "source": "patent US20030105167A1",
  "about": "“Treatment of opthalmic diseases” (priority 2001, published 2003)",
  "key": {"[1]": {"tested_on": "Human retinal pigment epithelial cells (RPE340 cells)", "test": "Survival of retinal pigment epithelial cells under hyperoxia (Trypan blue exclusion)", "type": "cell-based", "settings": "40% O2 hyperoxia, 5 days, compound 2 nM", "protocol": "Human retinal pigment epithelial cells (RPE340 cells) were grown and subjected to conditions of hyperoxia according to Honda et al., (2001) Invest Ophthalmol Vis. Sci., Vol. 42, pp. 2139-44. The cells were subjected to either 40% O2 or 20% O2 (control) for the duration of the experiment. These conditions are known to induce apoptotic cell death.\nCompounds A and B, above, were initially dissolved at 1 mg/ml in absolute ethanol and diluted in culture medium to a final concentration of 2 nM. To control for possible ethanol effects in the treated wells, all batches of media used here were supplemented with absolute ethanol at appropriate concentrations. Cells were incubated under hyperoxic conditions with either compound A, compound B or no compound added for a period of 5 days. Effects on cell viability and growth were monitored by Trypan blue exclusion."}, "[2]": {"tested_on": "Trabecular meshwork cells", "test": "Survival of primary trabecular meshwork cells under toxic conditions (live-dead dyes)", "type": "cell-based", "settings": "hydrogen peroxide 100 uM, 24 hours, compound 2nM", "protocol": "Trabecular meshwork cells used here were grown from fresh explants obtained from normal donors according to the procedures described in Agarwal et al., (1999) Exp Eye Res., Vol. 68, pp. 583 90 and Hogg et al., (2000) Invest Ophthalmol Vis. Sci., Vol. 41, pp. 1091-8. Cells were toxic conditions by exposure to hydrogen peroxide at 100 uM for 24 hours, which typically kills at least 50% of cells. With different batches of cells, the hydrogen peroxide concentration necessary to obtain 50% cell death frequently needs to be determined empirically. Trabecular cell viability was assessed using commercially available live-dead dyes. Other stains such as stains for DNA fragmentation or annexin binding are also suitable.\nCompounds C and D, above, were initially dissolved at lmg/ml in absolute ethanol and diluted in culture medium to a final concentration of 2nM. To control for possible ethanol effects in the treated wells, all batches of media used here as were supplemented with absolute ethanol at appropriate concentrations. Cultured trabecular cells were incubated under toxic conditions with either compound C, compound D or no compound added for a period of 24 hours. Trabecular cell viability was assessed using commercially available live-dead dyes."}, "[3]": {"tested_on": "Transformed rat retinal ganglion cells (RGC-5 cells)", "test": "FRET assay of Ca+2-induced ΔΨm collapse in transformed retinal ganglion cells", "type": "cell-based", "settings": "FIG. 2; for extent of mitochondrial failure at the highest Ca+2 concentration: P<0.05 via ANOVA; for extent of mitochondrial collapse compared to buffer-treated controls: compound 5 minutes prior to Ca+2", "from_the_text": "Transformed rat retinal ganglion cells (RGC-5 cells) were produced by transforming Sprague-Dawley rat retinal cells from postnatal day I rats with replication incompetent Ψ2 EIA virus and was originally established to help illuminate the basic mechanisms underlying RGC apoptosis in glaucoma (Krishnomoorthy, et al., 2001). The cells express the specific cellular marker, Thy-1, consistent with their retinal ganglion cell origin. Confirmation of Thy-1 expression was made by RT-PCR, immunocytochemistry and immunoblot analysis. […] The toxicity response with glutamate has an EC50 of about 50 uM. Importantly, transformed RGC cells undergo TUNEL-positive apoptotic-mediated cell death upon serum deprivation, indicating the presence of classical apoptosis pathways induced by mitochondrial dysfunction and/or failure.\nPossible mitochondrial responses of our compounds are evaluated in intact RGC-5 cells using an assay for mitochondrial ΔΨm which is based on fluorescence energy transfer (FRET) between two dyes that colocalize to the mitochondria. The FRET assay circumvents the confounding variables of plasma membrane potential and the low flourcscence efficiency typical of single potentiometric dyes (Dykens and Stout, 2001). Transformed retinal ganglion cells (RGC-5) were plated at a concentration of 60K cells/well twenty-four hours prior to the experiment. The cells were permeabilized in place with 0.08% digitonin. Cells were exposed to 17β-estradiol, 17α-estradiol, and a non-hormonal PPC, Compound H (see Example 5), for 5 minutes prior to the addition of Ca^+2.\nThe excitation dye in the FRET ΔΨm assay is nonyl acridine orange (NAO). NAO is an exceptionally selective stain for cardiolipin, a lipid found intracellularly almost exclusively (>99%) in the mitochondrial inner membrane. Its staining of the inner membrane is independent of ΔΨm. The second dye is tetramethylrhodamine (TMR), a potentiometric dye that is sequestered into the mitochondrial matrix as a Nernstian function of ΔΨm and imposed concentration. It is the specificity of NAO staining for cardiolipin, combined with the absolute prerequisite for close proximity of both dyes, that allows this FRET assay to report ΔΨm without interference from plasma membrane potential.\nBecause uptake and retention of TMR depends on ΔΨm, at a given dye concentration, the extent of quenching of NAO by TMR reflects the magnitude of ΔΨm. Dissipation of ΔΨm, in response to […], elevated Ca+2 load, or respiratory […], results in efflux of TMR from the mitochondrion. The corresponding loss of proximity abolishes quenching of NAO, so that loss of ΔΨm is detected as an increase in NAO fluorescence."}, "[4]": {"tested_on": "cell culture models", "settings": "doses as low as; cited from earlier work"}, "[5]": {"tested_on": "SHSY-5Y neuroblastoma cells", "test": "FRET assay of Ca+2-induced mitochondrial membrane potential (ΔΨm) collapse in neuroblastoma cells", "type": "cell-based", "settings": "FIG. 1; right shift of dose response curve compared to control", "protocol": "With reference to FIG. 1, mitochondria rapidly take up exogenous Ca^+2 to a maximum value before undergoing an irreversible loss of ΔΨm. ΔΨm was monitored after exposure to Ca^+2 concentrations ranging from 0 to 50 uM using a fluorescence resonance energy transfer (FRET) assay (Dykens and Stout, 2001). Cells were preincubated with 17β-estradiol and 17α-estradiol at 0.5 uM for 2.5 hrs. prior to Ca^+2 challenge, which was imposed by adding Ca^+2 directly to cells that had been permeabilized with digitonin (0.008%) final concentration, 5 min). The response, calculated as area under the curve, was plotted versus log Ca^+2 concentration using sigmoid regression analysis.\nThe excitation dye in the FRET ΔΨm assay is nonyl acridine orange (NAO). NAO is an exceptionally selective stain for cardiolipin, a lipid found intracellularly almost exclusively (>99%) in the mitochondrial inner membrane. Its staining of the inner membrane is independent of ΔΨm. […]\nBecause uptake and retention of TMR depends on ΔΨm, at a given dye concentration, the extent of quenching of NAO by TMR reflects the magnitude of ΔΨm. […] The corresponding loss of proximity abolishes quenching of NAO, so that loss of ΔΨm is detected as an increase in NAO fluorescence."}, "[6]": {"tested_on": "Transformed rat retinal ganglion cells (RGC-5 cells)", "settings": "read-out: EC50 of toxicity response; cited from earlier work"}, "[7]": {"tested_on": "retinal ganglion cells", "test": "Survival of axotomized retinal ganglion cells after intraorbital optic nerve transection", "type": "in vivo", "settings": "ovarectomized adult female rats, twice daily subcutaneous injection in oil, two days prior to eight days following transection; counted after an additional 4 weeks", "protocol": "The drugs were dissolved in sesame oil (Penta) at 100 ug/ml. Adult female rats to be used in these experiments were first ovarectomized. Rats were then subjected to intraorbital transection of the optic nerve, a procedure that leads to progressive degeneration of the majority of retinal ganglion cells. Cells survive for a few days and then die abruptly such that by one week only 50% survive and by two weeks only 10% survive. Axotomy is well known to lead to the death of retinal ganglion cells by an apoptotic process, causing classical cytochemical alterations characteristic of programmed cell death.\nFrom two days prior to eight days following optic nerve transactions, 17β-estradiol, ent-17β-estradiol, or appropriate amount of vehicle control sample was administered to the animals by a twice daily subcutaneous injection of compound in oil at 100 ug/ml (see above), such that the final concentration delivered was 100 ug/. If the protective compounds to be used are in a water soluble formulation, they can, alternatively, be delivered by a single intravitreal injection. […]\nAfter an additional 4 weeks, the retinal ganglial cells were labeled by retrograde staining with the carbocyanine dye, 4Di-10Asp, which was applied to the nerve stump. Three days later animals were sacrificed and surviving retinal cells were counted in retinal whole mounts. […]"}, "[8]": {"tested_on": "mouse HT-22 hippocampal cells", "test": "Protection against glutamate toxicity, calcein AM viability", "type": "cell-based", "settings": "glutamate 10 mM, 16 hours, representative study; read-out: Calculated EC50 for protection of cell viability", "protocol": "For instance, in this study, mouse HT-22 hippocampal cells were cultured in DMEM supplemented with 10% fetal calf serum. Cells were plated and simultaneously treated with glutamate (10 mM) and one of the test compounds individually, for instance compound H (also referred to as Compound 4565 in FIG. 2 and one of many protective PPCs disclosed in PCT publications WO02/36605 and WO00/63228), below or positive control 17β-estradiol (E), at various doses between 10 nM and 10 µM. After 16 hours, cell viability was determined using the calcein AM fluorescence (Excitation/Emission 485/530 […]) in a Bio-Tex Microplate Fluorescence Reader."}, "[9]": {"tested_on": "retinal ganglion layer", "settings": "administered prior to the insult; several days following reperfusion; cited from earlier work"}},
  "note": "pEC50: −log10 of the molar value.",
  "data": [
    {"smiles": "C[C@]1(C=O)CC[C@@H]2c3ccc(O)cc3CC[C@H]2C1", "note": "[compound B, [2S-(2a, 4aα, 10aβ)]-1,2,3,4,4a, 9, 10, 10a-octahydro-7-hydroxy-2-methyl-2-phenanthrenecarboxaldehyde]", "values": [
      {"measurement": "protection from cell death", "setting": "[1]", "result": "protect these cells from cell death"}
    ]},
    {"smiles": "CC(C)(C)c1cc2c(cc1O)CC[C@@H]1[C@@H]2CC[C@]2(C)C(=O)CC[C@@H]12", "note": "[D, 2-(1-tertbutyl)-3-hydroxyestra-1,3, 5 (IO)-trien-17-one]", "values": [
      {"measurement": "survival of trabecular cells", "setting": "[2]", "result": "significantly improve survival"}
    ]},
    {"smiles": "C[C@]1(CO)CC[C@@H]2c3ccc(O)cc3CC[C@H]2C1", "note": "[compound A, [2S-(2a, 4aα, 10aβ)]-1,2,3,4,4a,9,10,10a-octahydro-7-hydroxy-2-methyl-2-phenanthrenemethanol]", "values": [
      {"measurement": "protection from cell death", "setting": "[1]", "result": "protect these cells from cell death"}
    ]},
    {"smiles": "C[C@]12CC[C@@H]3c4ccc(O)cc4CC[C@H]3[C@@H]1CC[C@H]2O", "note": "[17α-estradiol]", "values": [
      {"measurement": "extent of mitochondrial failure at the highest Ca+2 concentration", "setting": "[3]", "result": "significantly lowered"},
      {"measurement": "extent of mitochondrial collapse compared to buffer-treated controls", "setting": "[3]", "result": "moderated"},
      {"measurement": "dose giving substantial cytoprotection", "setting": "[4]", "result": 0.2, "unit": "nM"},
      {"measurement": "amount of Ca+2 required to induce ΔΨm collapse", "setting": "[5]", "result": "substantially increase"}
    ]},
    {"smiles": "N[C@@H](CCC(=O)O)C(=O)O", "note": "[glutamate]", "values": [
      {"measurement": "pEC50", "setting": "[6]", "result": "~4.30"}
    ]},
    {"smiles": "C[C@]12CC[C@@H]3c4cc(C56CC7CC(CC(C7)C5)C6)c(O)cc4CC[C@H]3[C@@H]1CCC2=O", "note": "[C, 2-(1-Adamantyl)-3-hydroxyestra-1,3, 5 (10)-trien-17-one]", "values": [
      {"measurement": "survival of trabecular cells", "setting": "[2]", "result": "significantly improve survival"}
    ]},
    {"smiles": "C[C@@]12CC[C@H]3c4ccc(O)cc4CC[C@@H]3[C@H]1CC[C@H]2O", "note": "(single isomer, unassigned; ent-17) [ent-17β-estradiol]", "values": [
      {"measurement": "number of surviving retinal ganglial cells compared to the controls", "setting": "[7]", "result": 3, "unit": "fold"}
    ]},
    {"smiles": "C[C@]12CC[C@@H]3c4ccc(O)cc4CC[C@H]3[C@@H]1CC[C@@H]2O", "note": "[17β-estradiol]", "values": [
      {"measurement": "extent of mitochondrial failure at the highest Ca+2 concentration", "setting": "[3]", "result": "significantly lowered"},
      {"measurement": "extent of mitochondrial collapse compared to buffer-treated controls", "setting": "[3]", "result": "moderated"},
      {"measurement": "dose giving substantial cytoprotection", "setting": "[4]", "result": 0.2, "unit": "nM"},
      {"measurement": "amount of Ca+2 required to induce ΔΨm collapse", "setting": "[5]", "result": "substantially increase"},
      {"measurement": "pEC50", "setting": "[8]", "result": 5.66},
      {"measurement": "cell density in the retinal ganglion layer", "setting": "[9]", "result": "significantly higher"},
      {"measurement": "number of surviving retinal ganglial cells compared to the controls", "setting": "[7]", "result": 3, "unit": "fold"}
    ]}
  ]
}
